# Key:
# [1] = Inhibition of IL1-beta induced MMP3 expression levels in human chondrocytes assessed as MMP3 levels incubated for 2hrs followed by IL1-beta stimulation and measured after overnight incubation by LANCE assay; format: functional, cell-based; conditions: Chondrocyte
# [2] = Inhibition of IL1-beta induced MMP3 expression levels in human chondrocytes assessed as MMP3 levels incubated for 2hrs followed by IL1-beta stimulation and measured after overnight incubation by LANCE assay relative to control; format: functional, Chondrocyte
# [3] = target: Dual specificity tyrosine-phosphorylation-regulated kinase 1A (Homo sapiens, UniProt Q13627); experiment: Inhibition of recombinant DYRK1A (unknown origin) using Ser/Thr 18 peptide as substrate incubated for 1 hr in presence of ATP by FRET assay
# [4] = Induction of chondrogenesis in human MSC assessed as maximum activity at 300 nM incubated for 6 days by rhodamine B and Nile red staining based imaging analysis relative to control; format: functional; conditions: BMMSC, 144 h, time 6 day
# [5] = Induction of chondrogenesis in human MSC assessed as incubated for 6 days by rhodamine B and Nile red staining based imaging analysis; format: functional; conditions: bmmsc
# [6] = target: Dual specificity protein kinase CLK3 (Homo sapiens, UniProt P49761); experiment: Inhibition of recombinant CLK3 (unknown origin) using Ser/Thr 18 peptide as substrate incubated for 1 hr in presence of ATP by FRET assay
# [7] = Effect on Wnt signaling pathway in human SW480 cells harbouring TCF/LEF luciferase reporter gene and SP5-Luc reporter gene incubated for 36 to 48 hrs by luminescence assay; format: cell-based
# [8] = Induction of chondrogenesis in human MSC assessed as maximum activity at 10 nM incubated for 6 days by rhodamine B and Nile red staining based imaging analysis relative to control; format: functional; conditions: BMMSC, 144 h, time 6 day
# [9] = Induction of chondrogenesis in human MSC assessed as maximum activity at 100 nM incubated for 6 days by rhodamine B and Nile red staining based imaging analysis relative to control; format: functional; conditions: BMMSC, 144 h, time 6 day
# [10] = Induction of chondrogenesis in human MSC assessed as maximum activity at 30 nM incubated for 6 days by rhodamine B and Nile red staining based imaging analysis relative to control; format: functional; conditions: BMMSC, 144 h, time 6 day
# Dual specificity protein kinase CLK3, sequence (P49761 whole entry): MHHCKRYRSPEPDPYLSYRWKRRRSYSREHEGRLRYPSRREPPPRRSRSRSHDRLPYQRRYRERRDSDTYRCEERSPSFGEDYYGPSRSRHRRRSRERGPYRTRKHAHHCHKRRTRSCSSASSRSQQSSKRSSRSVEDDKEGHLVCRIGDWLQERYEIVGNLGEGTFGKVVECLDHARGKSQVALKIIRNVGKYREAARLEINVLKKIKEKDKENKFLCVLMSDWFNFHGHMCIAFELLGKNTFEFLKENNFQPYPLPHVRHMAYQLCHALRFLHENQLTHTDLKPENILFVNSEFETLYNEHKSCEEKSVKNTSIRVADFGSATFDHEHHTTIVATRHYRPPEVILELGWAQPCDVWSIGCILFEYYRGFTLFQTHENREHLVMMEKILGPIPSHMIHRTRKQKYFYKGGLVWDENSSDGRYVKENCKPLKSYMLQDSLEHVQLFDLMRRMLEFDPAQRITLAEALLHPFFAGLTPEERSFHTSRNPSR
SMILES,EC50 [1] [µM],EC50 [3] [µM],EC50 [5] [µM],EC50 [6] [µM],EC50 [7] [µM],Imax [2] [%],Emax at 0.3 µM [4] [%],Emax at 0.01 µM [8] [%],Emax at 0.1 µM [9] [%],Emax at 0.03 µM [10] [%]
COc1cncc(C#Cc2c[nH]nc2C(=O)Nc2ccc(N3CCNCC3)nc2)c1,–,0.011,–,> 10,> 10,–,–,74.7,–,–
CN(C)CCNc1cc(F)cc(-c2cccc3[nH]c(-c4n[nH]c5ncc(-c6ccncc6)cc45)cc23)c1,0.004,> 10,–,> 10,6.07,–,–,–,–,–
O=C(Nc1c[nH]nc1C(=O)Nc1cncc(-c2cccc(F)c2)c1)c1cncc(F)c1,0.0004,0.063,–,> 10,0.479,–,–,–,81.5,–
CN(C)C1CN(c2ncc(C(=O)Nc3cc4cc(-c5cnn(C)c5)ccc4cn3)s2)C1,0.0714,–,–,–,1.32,0,–,–,–,–
O=C(Nc1ccc(CN2CCCC2)cc1)c1n[nH]c2ccc(-c3cnn(C4CC4)c3)cc12,3,0.004,–,–,0.451,57,–,–,–,–
COc1cncc(C(=O)Nc2c[nH]nc2C(=O)Nc2ccc3c(c2)CCNC3)c1,0.342,0.008,–,–,0.613,76,–,–,–,–
O=C(Nc1ccc(OCCN2CCCC2)nc1)c1n[nH]cc1C#Cc1cccnc1,–,0.024,–,> 10,0.409,–,–,–,–,68.8
FC1(F)CCN(Cc2cncc(-c3ccc4[nH]nc(-c5cc6cccnc6[nH]5)c4n3)c2)C1,–,0.011,0.1,0.37,0.104,–,–,–,–,134
Cn1ncc(-c2ccc3cnc(NC(=O)c4ccnc(N5CCOCC5)c4)cc3c2)c1CN1CCOCC1,3,–,–,–,–,70,–,–,–,–
CN1CCC(Oc2ccc3[nH]c(-c4n[nH]c5ccc(-c6cnn(C)c6)cc45)nc3c2)CC1,0.17,0.002,–,–,0.0183,100,–,–,–,–
CN1CCN(c2ccnc3[nH]c(-c4n[nH]c5ccc(-c6cn[nH]c6)nc45)cc23)CC1,–,0.049,0.3,> 10,> 10,–,60.1,–,–,–
NC(=O)c1ccc(NC(=O)c2n[nH]c3ccc(-c4cncc(CN5CCCCC5)c4)cc23)cn1,2.22,0.001,–,–,0.013,100,–,–,–,–
CC(C)N1CCC(n2cc(C(=O)Nc3cc4cc(-c5cn(C)nn5)ccc4cn3)cn2)CC1,0.492,–,–,–,0.0327,91,–,–,–,–
Cc1n[nH]c2ccc(-c3cncc(NCC4(F)CNC4)n3)cc12,2.27,0.011,–,–,0.78,100,–,–,–,–
Fc1ccc(-c2cccc3[nH]c(-c4n[nH]c5ncc(-c6cncc(CN7CCCCC7)c6)cc45)cc23)cc1,0.0461,> 10,–,> 10,3.66,–,–,–,–,–
c1cc(-c2ccnc3[nH]c(-c4n[nH]c5ccc(-c6cncc(OCCN7CCCC7)c6)nc45)cc23)ccn1,–,0.028,–,> 10,> 10,–,39.6,–,–,–
CN1CCC(Nc2ccc(NC(=O)c3n[nH]c4cc(F)c(-c5cnn(C)c5)cc34)cn2)CC1,1.16,0.002,–,–,0.23,100,–,–,–,–
Nc1cncc(-c2cc3c(-c4cc5c(-c6ccccc6F)ccnc5[nH]4)n[nH]c3cn2)c1,–,0.042,–,> 10,> 10,–,–,32.4,–,–
CN1CCN(c2ccnc3[nH]c(-c4n[nH]c5ccc(-c6cncc(NC(=O)c7ccccc7)c6)nc45)cc23)CC1,–,0.029,0.01,0.258,6.1,–,–,61.8,–,–
COc1cncc(-c2ccc3[nH]nc(-c4nc5c(N6CCCCC6)ccnc5[nH]4)c3n2)c1,0.123,> 10,–,> 10,> 10,–,–,–,–,–
Fc1ccc(-c2cccc3[nH]c(-c4n[nH]c5ccc(-c6cncnc6)nc45)nc23)cc1,3,> 10,–,> 10,> 10,–,–,–,–,–
Cn1cc(-c2ccc3cnc(NC(=O)c4ccnc(N5CC6CC5CN6)c4)cc3c2)cn1 (stereo not drawn),3,–,–,–,–,69,–,–,–,–
c1cc(-c2cncc3[nH]c(-c4n[nH]c5ccc(-c6cncc(CNCC7CCCC7)c6)cc45)nc23)cs1,–,0.012,0.1,> 10,0.058,–,–,–,167,–
O=C(Nc1cc2cc(-c3cncs3)ccc2cn1)C1(F)CCCCC1,3,0.008,–,> 10,> 10,–,–,–,–,–
O=C(Nc1cncc(-c2cc3c(-c4cc5c(-c6cccc(F)c6)ccnc5[nH]4)n[nH]c3cn2)c1)C1CC1,0.298,> 10,–,> 10,0.0097,–,–,–,–,–
O=C(Cc1ccccc1)Nc1cncc(-c2ccc3[nH]nc(-c4cc5cnccc5[nH]4)c3c2)c1,–,0.008,0.01,0.18,1.76,–,–,119,–,–
Nc1cncc(-c2cc3c(-c4cc5c(-c6ccncc6)cncc5[nH]4)n[nH]c3cn2)c1,–,0.003,0.01,> 10,> 10,–,–,–,–,52
CC(C)Nc1cncc(-c2cnc3[nH]nc(-c4cc5c(-c6ccccc6F)ccnc5[nH]4)c3c2)c1,–,0.035,0.01,> 10,> 10,–,–,81.6,–,–

# Continued, in another order:
EC50 [1] [µM],EC50 [3] [µM],EC50 [5] [µM],EC50 [6] [µM],EC50 [7] [µM],SMILES,Imax [2] [%],Emax at 0.3 µM [4] [%],Emax at 0.01 µM [8] [%],Emax at 0.1 µM [9] [%],Emax at 0.03 µM [10] [%]
0.154,–,–,–,–,Cn1cc(-c2ccc3cnc(NC(=O)c4ccnc(OC5CNC5)c4)cc3c2)cn1,100,–,–,–,–
–,0.008,0.3,> 10,> 10,Cn1cc(-c2cnc3[nH]nc(-c4cc5cccnc5[nH]4)c3c2)cn1,–,51.7,–,–,–
3,0.009,–,–,0.0025,O=C(Nc1c[nH]nc1C(=O)Nc1ccc(N2CCCC2)nc1)c1cncc(OC2CCNCC2)c1,80,–,–,–,–
3,0.001,–,–,0.03,O=C(Nc1ccc(C(=O)N2CCCC2)nc1)c1n[nH]c2ccc(-c3cncc(CN4CCCCC4)c3)cc12,100,–,–,–,–
1.1,0.005,–,–,0.0854,CC(C)(C)C(=O)Nc1cncc(-c2ccc3[nH]nc(-c4nc5c(-c6cccnc6)cncc5[nH]4)c3c2)c1,100,–,–,–,–
0.0029,–,–,–,0.382,O=C(Nc1cc2cc(-c3cncc(CN4CCC(O)CC4)c3)ccc2cn1)c1ccc(F)cc1,3.7,–,–,–,–
3,> 10,–,> 10,> 10,Fc1cccc(-c2cncc3[nH]c(-c4n[nH]c5ccc(-c6cnccn6)nc45)nc23)c1,–,–,–,–,–
0.818,0.001,–,–,0.079,CN1CCC(n2cc(NC(=O)c3n[nH]c4ccc(-c5cnn(C)c5)cc34)cn2)CC1,100,–,–,–,–
3,> 10,–,> 10,> 10,COc1cccc(-c2cncc3[nH]c(-c4n[nH]c5ccc(-c6cncc(NC(=O)C7CCCCC7)c6)nc45)nc23)c1,–,–,–,–,–
–,0.014,0.01,> 10,> 10,CN(C)c1cncc(-c2cnc3[nH]nc(-c4cc5c(-c6ccncc6)cncc5[nH]4)c3c2)c1,–,–,–,–,191
–,0.068,–,> 10,> 10,c1cc(-c2ccnc3[nH]c(-c4n[nH]c5ccc(-c6cncnc6)cc45)cc23)ccn1,–,–,–,17.3,–
3,0.008,–,–,0.47,Fc1ccc(-c2cncc3[nH]c(-c4n[nH]c5cnc(-c6cncc(CN7CCCC7)c6)cc45)nc23)s1,81,–,–,–,–
–,0.006,0.1,0.46,> 10,CCCC(=O)Nc1cncc(-c2ccc3[nH]nc(-c4cc5c(-c6ccncc6)cncc5[nH]4)c3c2)c1,–,–,–,124,–
–,0.014,–,> 10,> 10,O=C(Nc1cncc(-c2cnc3[nH]nc(-c4cc5cccnc5[nH]4)c3c2)c1)c1ccccc1,–,–,21.8,–,–
–,0.04,0.1,> 10,> 10,c1cc(-c2ccnc3[nH]c(-c4n[nH]c5ccc(-c6cncc(CNCC7CCCC7)c6)nc45)cc23)ccn1,–,–,–,67.2,–
0.0087,0.022,–,> 10,0.679,O=C(Nc1cccnc1)Nc1c[nH]nc1C(=O)Nc1ccc(C(F)(F)F)nc1,–,–,–,–,–
–,0.066,0.3,> 10,> 10,Cc1ccncc1-c1ccc2[nH]nc(-c3cc4c(-c5ccncc5)ccnc4[nH]3)c2n1,–,56.5,–,–,–
3,0.06,–,3.38,2.44,Cc1n[nH]c2cc(F)c(-c3cncc(CN4CCCCC4)n3)cc12,–,–,–,–,–
–,0.043,0.9,> 10,3,CN(C)CCOc1cncc(-c2cc3c(-c4cc5c(-c6ccc(F)cc6)nccc5[nH]4)n[nH]c3cn2)c1,–,113,–,–,–

# Reference: ChEMBL document CHEMBL4739717, “Methods of treating cartilage disorders through inhibition of clk and dyrk” (2020)
